Source: US5750540A, “1,4-di-substituted piperidine derivatives” (Banyu Pharmaceutical Co., Ltd., priority 1995, dated 1998)
Like-named read-outs stand apart in the source and are kept apart here.

Legend:
muscarinic M3 receptor [1] = biological target: T1, muscarinic M3 receptor (Rattus norvegicus, UniProt P08483); assay: Intravesical bladder pressure in rats; assay type: in vivo; design: from tissue; settings: i.v., 25% inhibition of peak intravesical bladder pressure
Method: (§1) Tests for antagonism against muscarinic M3 receptor (in vivo)
4) Tests for intravesical bladder pressure in rats
These tests were performed according to the method of Maggi et al. (Drug Dev. Res. 10: 157-170, 1987). Briefly, eight- to ten-weeks-old male rats of the Sprague-Dawley strain, weighing 330-370 g, were anesthetized by subcutaneous administration of urethane (1 g/kg) and α-chloralose (50 mg/kg), and the right jugular vein was cannulated for drug administration. The body temperature was kept constant by means of a heating pad maintained at 37° C. Through a midline incision of the abdomen, the urinary bladder was exposed and emptied of urine by the application of a slight manual pressure. A 20-gauge needle was inserted through the apex of the bladder dome by 3-4 mm into its lumen. The needle had previously been connected to a pressure transducer and an infusion pump by means of polyethylene tubing and the whole system filled with saline. After a 30-minutes equilibration period at zero volume, saline was infused (2.8 ml/hr) until a coordinated sustained contraction, reflecting the peak intravesical bladder pressure, occured. The bladder was then emptied manually and allowed to rest for five minutes. PvesP was defined as the difference between the maximum and resting bladder pressures. This procedure was repeated at least five times and the evaluation of a test compound was carried out in the animals in which a stable peak intravesical bladder pressure was recorded. The drug potency (ID25 ) was determined after intravenous administration of the test compound during the rest period. Five minutes after drug administration, the infusion of saline was started to induce micturition contraction and the peak intravesical bladder pressure was recorded. The depression in peak intravesical bladder pressure was expressed as a percent of the control peak intravesical bladder pressure observed before administration of the test compound. The ID25 value, calculated by probit analysis, was defined as the drug dose that inhibited the control peak intravesical bladder pressure by 25%.

muscarinic M3 receptor [2] = biological target: T1, muscarinic M3 receptor; assay: Intestinal propulsion in rats (charcoal meal); assay type: in vivo; design: from tissue; settings: i.v., 15% inhibition of intestinal propulsion
Method: as §1
5) Tests for intestinal propulsion in rats
Five- to seven-weeks-old male rats of the Sprague-Dawley strain were fasted overnight. A test compound was administered intravenously to the animals. Five minutes later, 1 ml per animal of a 5% charcoal suspension was administered orally. Thirty minutes after administration of the charcoal meal, the rats were sacrificed by decapitation, and the gastrointestinal tract was removed. The distance from the pylorus to the point of arrival of the charcoal meal was measured and the transportation rate was calculated. The ID15 value was calculated from the dose-response curve using probit analysis and defined as the drug dose that inhibited intestinal propulsion in the control group by 15%.

muscarinic M3 receptor [3] = biological target: T1, muscarinic M3 receptor; assay: in vivo; design: from tissue; host or cells: living rat, airways; settings: iv, read-out: Salivary secretion ID50
Method: as §1
2) Tests for salivary secretion in rats
Five- to seven-weeks-old male rats of the Sprague-Dawley strain were anesthetized with sodium pentobarbital (65 mg/kg, i.p.), and a cannula was inserted into the right jugular vein for purposes of drug administration. A test compound was administered intravenously. Five minutes later, carbachol (10 μg/kg, i.v.) was administered to evoke salivary secretion. For each rat, saliva collection was started immediately after carbachol administration and continued for ten minutes. This was carried out by inserting glass capillaries (Drummond, 100 μl) into the oral cavity of the rat at intervals of one minute. The amount of collected saliva was determined on the assumption that a length of 75 mm of the glass capillary corresponded to 100 μl. Physiological saline was used in the control group. The ID50 value was calculated from the dose-response curve of the test compound using probit analysis and defined as the drug dose that inhibited the carbachol-induced salivation in the control group by 50%.

muscarinic M3 receptor [4] = assay: in vivo; settings: rat, i.v., Table 3
Method: as §1
(§2) 1) Tests for bronchodilation in rats
(§3) Eight- to eleven-weeks-old male rats of the Sprague-Dawley strain, weighing 300-400 g, were anesthetized with urethane (750 mg/kg, i.p.) and a-chloralose (37.5 mg/kg, i.p.). A bronchus was intubated, and the right jugular vein was cannulated for drug administration. […] To evoke an increase in airway resistance, acetylcholine (50 μg/kg, i.v.) was administered to the animals. Mean values for the acetylcholine-induced increase in airway resistance as measured five minutes before (control) and five minutes after test compound administration were calculated and the results were expressed as percentages of the control response. The ID50 value was calculated from the dose-response curve of the test compound using probit analysis and defined as the drug dose that inhibited the acetylcholine-induced increase in airway resistance in the control group by 50 %.

muscarinic M3 receptor [5] = biological target: T1, muscarinic M3 receptor; assay: in vivo; design: from tissue; host or cells: living rat, airways; settings: iv, 5 min, read-out: Airway contraction ID50
Method: as §1, §2, §3

muscarinic M3 receptor [6] = biological target: T1, muscarinic M3 receptor; assay: in vivo; design: from tissue; host or cells: living rat, airways; settings: iv, read-out: Mydriasis ED50
Method: as §1
3) Tests for mydriasis in rats
Five- to seven-weeks-old male rats of the Sprague-Dawley strain were anesthetized with pentobarbital (65 mg/kg, i.p.), and a cannula was inserted into the right jugular vein for purposes of drug administration. By using a graduated scale (pulilometer), pupillary responses to drugs were measured to the nearest 0.1 mm at the point of the greatest diameter. […] Responses were expressed as percentages of the maximal increase in pupil diameter induced by administration of atropine (30 μg/kg, i.v.). The ED50 value was calculated from the dose-response curve of the test compound using probit analysis and defined as the drug dose that induced 50% of the maximal response.

muscarinic M2 receptors = biological target: T2, muscarinic M2 receptors (Rattus norvegicus, UniProt P10980); assay: Bradycardia in rats (acetylcholine-induced); assay type: in vivo; settings: iv, 5 min, i.v., 5 minutes after administration, 50% inhibition of acetylcholine-induced bradycardia, read-out: Bradycardia ID50
T2 construct: a membrane specimen from the heart was used as the membrane specimen; from tissue; host or cells: rat heart membranes (SD rat)
T2 sequence (P10980 1-466): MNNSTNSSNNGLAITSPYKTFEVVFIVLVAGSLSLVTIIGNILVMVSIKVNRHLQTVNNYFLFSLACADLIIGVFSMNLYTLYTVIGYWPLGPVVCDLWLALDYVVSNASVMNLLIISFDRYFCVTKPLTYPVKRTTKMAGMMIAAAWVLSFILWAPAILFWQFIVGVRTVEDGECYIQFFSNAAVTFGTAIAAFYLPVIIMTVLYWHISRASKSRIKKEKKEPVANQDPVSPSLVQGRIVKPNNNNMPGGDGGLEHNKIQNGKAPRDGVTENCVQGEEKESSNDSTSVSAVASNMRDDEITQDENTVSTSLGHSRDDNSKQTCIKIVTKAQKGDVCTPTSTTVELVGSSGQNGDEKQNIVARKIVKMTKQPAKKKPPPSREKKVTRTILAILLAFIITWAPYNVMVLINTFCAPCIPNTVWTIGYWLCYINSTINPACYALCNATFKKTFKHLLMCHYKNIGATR
Method: 6) Tests for bradycardia in rats
Eight- to eleven-weeks-old male rats of the Sprague-Dawley strain, weighing 300-400 g, were anesthetized with urethane (750 mg/kg, i.p.) and α-chloralose (37.5 mg/kg, i.p.). A bronchus was intubated, and the right jugular vein was cannulated for drug administration. […] To evoke bradycardia, acetylcholine (50 μg/kg, i.v.) was administered to the animals. Mean values for the acetylcholine-induced decrease in heart rate as measured five minutes before (control) and five minutes after test compound administration were calculated and the results were expressed as percentages relative to the control response. The ID50 value was calculated from the dose-response curve of the test compound using probit analysis and defined as the drug dose that inhibited the acetylcholine-induced bradycardia in the control group by 50%.

T1 sequence (P08483 whole entry): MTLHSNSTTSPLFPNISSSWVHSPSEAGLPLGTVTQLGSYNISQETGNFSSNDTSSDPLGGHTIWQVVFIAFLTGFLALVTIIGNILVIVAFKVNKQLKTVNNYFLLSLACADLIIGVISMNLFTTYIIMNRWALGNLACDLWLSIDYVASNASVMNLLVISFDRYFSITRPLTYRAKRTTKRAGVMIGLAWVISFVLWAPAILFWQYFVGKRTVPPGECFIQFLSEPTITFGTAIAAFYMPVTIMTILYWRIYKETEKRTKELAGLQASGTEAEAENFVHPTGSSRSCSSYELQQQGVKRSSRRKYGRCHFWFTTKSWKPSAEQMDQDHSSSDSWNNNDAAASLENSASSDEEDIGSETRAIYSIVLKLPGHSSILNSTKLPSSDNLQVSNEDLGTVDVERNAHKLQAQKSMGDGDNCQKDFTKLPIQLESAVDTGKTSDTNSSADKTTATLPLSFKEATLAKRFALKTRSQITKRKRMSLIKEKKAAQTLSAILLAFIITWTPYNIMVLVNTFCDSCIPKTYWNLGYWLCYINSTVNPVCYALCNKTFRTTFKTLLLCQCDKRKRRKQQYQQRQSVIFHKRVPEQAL

SMILES: CN1[C@@H]2CC[C@H]1C[C@@H](OC(=O)C(CO)c1ccccc1)C2 (stereo partly shown) [Atropine]
- Urinating contraction ID25 (muscarinic M3 receptor [1]): 0.027 mg/kg i.v.
- Enterokinesis ID15 (muscarinic M3 receptor [2]): 0.019 mg/kg i.v.
- ED50 (muscarinic M3 receptor [3]): 2.2 µg/kg
- Activity with respect to all of the six types of responses (in words) (muscarinic M3 receptor [4]): potent activities
- Selectivity over the six types of responses (in words) (muscarinic M3 receptor [4]): non-selective
- ED50 (muscarinic M3 receptor [5]): 4.3 µg/kg
- ED50 (muscarinic M3 receptor [6]): 18 µg/kg
- ED50 (muscarinic M2 receptors): 3.7 µg/kg

SMILES: CC(C)[N+]1(C)[C@@H]2CC[C@H]1C[C@@H](OC(=O)C(CO)c1ccccc1)C2 (stereo partly shown) [Ipratropium]
- Urinating contraction ID25 (muscarinic M3 receptor [1]): 0.0048 mg/kg i.v.
- Enterokinesis ID15 (muscarinic M3 receptor [2]): 0.004 mg/kg i.v.
- ED50 (muscarinic M3 receptor [3]): 1.8 µg/kg
- Activity with respect to all of the six types of responses (in words) (muscarinic M3 receptor [4]): potent activities
- Selectivity over the six types of responses (in words) (muscarinic M3 receptor [4]): non-selective
- ED50 (muscarinic M3 receptor [5]): 1.5 µg/kg
- ED50 (muscarinic M3 receptor [6]): 4.1 µg/kg
- ED50 (muscarinic M2 receptors): 1.8 µg/kg
